The record followed here is US4795643A, “Medicament with a delayed release of active ingredient” (priority 1987, dated 1989).

This series in a line: Dissolution Paddle Apparatus (U.S. Pharmacopoeia XX): rate of release of active ingredient from the capsule in water. Format: physicochemical. Here is the method: For this purpose, the total amount of active ingredient released (cumulative values) is determined after fixed periods of time, in particular after 1, 2, 4, 6 and 8 hours, and this amount is expressed in % by weight of the amount of active ingredient contained in the capsule.

Take `COc1ccc(C2Sc3ccccc3N(CCN(C)C)C(=O)C2OC(C)=O)cc1.Cl` (stereo not shown) [diltiazem.HCl, 3-acetoxy-5-(2-dimethylaminoethyl)-2,3-dihydro-2-(4-methoxyphenyl)-1,5-benzothiazepin-4(5H)-one hydrochloride]: the “release of diltiazem.HCl” value runs as follows: (absence of a polymer, 1.5 hours) 92.5%; (ethylcellulose, HLB of 10.5, 6 hours) 68.5%; (ethylcellulose, HLB of 11.5, 3 hours) 84.5%.
In the case of `CC(C)Cc1ccc(C(C)C(=O)O)cc1` (stereo not shown) [ibuprofen, 2-(4-isobutylphenyl)-propionic acid], the release of ibuprofen reads like this: (PEG 300-stearate (HLB=9 to 10) with Eudragit S 100 added, 2 hours) 91.4%; (PEG 1500-stearate (HLB=17) with Eudragit S 100 added, 8 hours) 84.8%; (mixture with PEG 300-stearate, 1 hour) 98.1%; (mixture with PEG 1500-stearate, 0.25 hour) 97%.
